According to US6875851B1 (priority 1999, dated 2005):
Where “and” joins values, the source holds several entries; their conditions need not be identical. Equal values may be shown once. Entries after “also recorded” stand apart in the source; their conditions may differ. Read-outs that look alike come from different tables or passages of the source. Where no end group is shown, it is not given here. [ ]: non-standard residue; d: D form. The star is where a group is joined. pNA = O=[N+]([O-])c1ccc(N*)cc1; Cbz = O=C(OCc1ccccc1)*

Key:
[1] = test system: PTP-A; format: biochemical, P. gingivalis; settings: enzyme:substrate 1:100, 3 hours or 24 hours, 200 mM HEPES, pH 7.5, 37° C.; for Cleavage site mediated by PTP-A: 1 μg PTP-A
[2] = test system: PTP-A; format: biochemical, P. gingivalis; settings: 1 mM substrate, 0.2 M HEPES, pH 7.5 at 37° C.
Target sequence in this assay (Q7MUW6 81-732 limits assumed): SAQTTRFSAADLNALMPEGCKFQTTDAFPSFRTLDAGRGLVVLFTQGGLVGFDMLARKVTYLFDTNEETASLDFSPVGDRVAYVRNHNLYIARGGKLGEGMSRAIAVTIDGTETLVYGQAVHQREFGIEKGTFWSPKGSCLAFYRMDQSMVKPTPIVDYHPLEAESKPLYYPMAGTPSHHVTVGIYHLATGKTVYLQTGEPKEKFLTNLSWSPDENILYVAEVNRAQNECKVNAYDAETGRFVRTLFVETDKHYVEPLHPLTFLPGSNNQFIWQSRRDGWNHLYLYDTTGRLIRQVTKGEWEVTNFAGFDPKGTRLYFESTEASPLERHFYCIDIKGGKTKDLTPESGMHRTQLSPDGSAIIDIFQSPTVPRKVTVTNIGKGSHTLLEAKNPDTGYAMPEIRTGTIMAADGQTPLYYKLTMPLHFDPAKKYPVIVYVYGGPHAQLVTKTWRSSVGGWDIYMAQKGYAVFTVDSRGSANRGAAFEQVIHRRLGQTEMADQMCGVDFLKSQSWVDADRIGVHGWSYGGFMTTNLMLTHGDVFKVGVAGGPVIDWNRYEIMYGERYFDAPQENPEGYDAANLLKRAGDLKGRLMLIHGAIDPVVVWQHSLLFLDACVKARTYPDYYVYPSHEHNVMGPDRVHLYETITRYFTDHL

[3] = test system: PTP-A; format: biochemical, P. gingivalis; settings: for Residual activity of PTP-A, %: pH 7.6
[4] = test system: DPP IV; format: biochemical, P. gingivalis; settings: pH 7.6
[5] = test system: DPP IV; test: Cleavage specificity of DPP IV on synthetic peptides; format: biochemical, P. gingivalis; settings: for Cleavage site mediated by DPP IV: same conditions as those used for PTP-A
Description: Enzyme Specificity—Peptides were incubated with 1 μg PTP-A at an enzyme:substrate molar ratio of 1:100 for 3 hours or 24 hours in 50 μl of 200 mM HEPES, pH 7.5, at 37° C., and the reaction stopped by acidification with trifluoroacetic acid. The samples were then subjected to reverse-phase high pressure liquid chromatography using a μBondapak C-18 column (3.9×300 mm) (Waters, Millford, Mass.) and an acetonitrile gradient (0-80% in 0.075% trifluoroacetic acid in 50 min). Each peak, detected at 220 nm, was collected, lyophilized, redissolved in 50% (volume/volume) methanol, 0.1% acetic acid and subjected to analysis by mass spectrometry.
Mass Spectrometry—A Finnigan MAT 95S, sector mass spectrometer (Finnigan MAT, Bremen, Germany) equipped with an electrospray source (ESI) was used operated essentially as described previously (Stenfors, C., et al., (1997) J. Biol. Chem. 272, 5747-5751). Peptides were identified by fitting of the obtained spectra to specific sequences using an Internet application program MsFit available at http://falcon.ludwig.ucl.ac.uk/msfit.html.

[6] = test system: PTP-A; format: biochemical, P. gingivalis
[7] = test system: P. gingivalis; format: cell-based; settings: for P. gingivalis growth (OD600): 37° C.

H-Arg-Gly-Pro-↓-Phe-Pro-Ile (RGPFPI) [Peptide 11]
Cleavage site mediated by PTP-A [1]: H-Arg-Gly-Pro-↓-Phe-Pro-Ile

H-Ala-Phe-Pro-pNA
Hydrolysis of chromogenic substrate by PTP-A [2]: hydrolyzed

H-Val-Pro-Pro-↓-Gly-Glu-Asp-Ser-Lys (VPPGEDSK) [Peptide 8]
Cleavage site mediated by PTP-A [1]: H-Val-Pro-Pro-↓-Gly-Glu-Asp-Ser-Lys

H-Gly-Pro-pNA
Hydrolysis of chromogenic substrate by PTP-A [2]: only H-Ala-Phe-Pro-pNA was hydrolyzed

Ac-Val-Pro-Pro-Gly-Glu-Asp-Ser-Lys (Ac-VPPGEDSK) [Peptide 9]
Cleavage of peptide by PTP-A (in words) [1]: resistance to enzymatic hydrolysis

Cbz-Ala-Pro-pNA
Hydrolysis of chromogenic substrate by PTP-A [2]: only H-Ala-Phe-Pro-pNA was hydrolyzed

O=C(O)CN(CCN(CC(=O)O)CC(=O)O)CC(=O)O [EDTA]
Residual activity of PTP-A, % [3]: 100% | Residual activity of DPP IV, % [4]: 100%

c1cnc2c(c1)ccc1cccnc12 [1,10-orthophenanthroline]
Residual activity of PTP-A, % [3]: 93% and 100% | Residual activity of DPP IV, % [4]: 100%

CC(=O)N[C@@H](CC(C)C)C(=O)N[C@@H](CC(C)C)C(=O)N[C@H](C=O)CCCNC(=N)N [Leupeptin]
Effect on PTP-A amidolytic activity (in words) [3]: no effect at all | Residual activity of PTP-A, % [3]: 100% | Residual activity of DPP IV, % [4]: 20%

NC(=O)CI [Iodoacetamide]
Effect on PTP-A amidolytic activity (in words) [3]: stimulated enzyme amidolytic activity about two-fold | Residual activity of PTP-A, % [3]: 100% | Residual activity of DPP IV, % [4]: 100%

H-Ser-Pro-↑-Tyr-Ser-Ser-Asp-Thr-Thr (SPYSSDTT) [Peptide 23]
Cleavage site mediated by DPP IV [5]: H-Ser-Pro-↑-Tyr-Ser-Ser-Asp-Thr-Thr

H-Val-Pro-Pro-↓-Gly-Glu-Asp-Ser-Lys-Glu-Val-Ala-Ala-Pro-His-Arg-Gln (VPPGEDSKEVAAPHRQ) [Peptide 7]
Cleavage site mediated by PTP-A [1]: H-Val-Pro-Pro-↓-Gly-Glu-Asp-Ser-Lys-Glu-

O=S(=O)(F)Cc1ccccc1 [Phenylmethanesulfonyl fluoride]
Effect on PTP-A amidolytic activity (in words) [3]: no effect at all

α1-proteinase inhibitor: Human plasma inhibitor
Effect on PTP-A amidolytic activity (in words) [3]: did not affect the enzyme activity | Cleavage of protein by PTP-A (in words) [6]: nor were they cleaved by PTP-A

Cbz-Gly-Pro-pNA
Hydrolysis of chromogenic substrate by PTP-A [2]: only H-Ala-Phe-Pro-pNA was hydrolyzed

H-Pro-pNA
Hydrolysis of chromogenic substrate by PTP-A [2]: only H-Ala-Phe-Pro-pNA was hydrolyzed

Val-Pro
Residual activity of PTP-A, % [3]: 100% | Residual activity of DPP IV, % [4]: 1%

IGVHGWXYGGFMTINL [SEQ ID NO:24]
Cleavage by DPP IV (in words) [5]: found to cleave

H-Pro-Asn-Pro-↓-Asn-Gln-Gly-Asn-Phe-Ile (PNPNQGNFI) [Peptide 13]
Cleavage site mediated by PTP-A [1]: H-Pro-Asn-Pro-↓-Asn-Gln-Gly-Asn-Phe-Ile

albumin
Cleavage of protein by PTP-A (in words) [6]: absence of any proteolytic activity

H-Gly-Val-Pro-↓-Lys-Thr-His-Leu-Glu-Leu (GVPKTHLEL) [Peptide 15]
Cleavage site mediated by PTP-A [1]: H-Gly-Val-Pro-↓-Lys-Thr-His-Leu-Glu-Leu

H-Arg-Pro-Pro-↓-Gly-Phe (RPPGF) [Peptide 2]
Cleavage site mediated by PTP-A [1]: H-Arg-Pro-Pro-↓-Gly-Phe

interleukin 6: protein substrate
Cleavage of protein by PTP-A (in words) [6]: able to cleave a tripeptide

H-Leu-Pro-↑-Asp-Leu-Asp-Ser-Ser-Leu-Ala-Ser-Ile-Gln-Glu-Leu-Leu-Ser-Pro-Gln-Glu-Pro-Pro-Arg-Pro-Pro-Glu-Ala (LPDLDSSLASIQELLSPQEPPRPPEA) [Peptide 20]
Cleavage by DPP IV (in words) [5]: found to cleave | Cleavage site mediated by DPP IV [5]: H-Leu-Pro-↑-Asp-Leu-Asp-Ser-Ser-Leu-Ala-

H-YRPPGFSPFR [Peptide 4]
Cleavage of peptide by PTP-A (in words) [1]: significant exception

CCN1C(=O)C=CC1=O [N-Ethylmaleimide]
Effect on PTP-A amidolytic activity (in words) [3]: not | Residual activity of PTP-A, % [3]: 98% | Residual activity of DPP IV, % [4]: 100%

H-Ala-Arg-Pro-↓-Ala-D-Lys-amide (H-ARPA[dK]-NH2; SMILES C[C@H](N)C(=O)N[C@@H](CCCNC(=N)N)C(=O)N1CCC[C@H]1C(=O)N[C@@H](C)C(=O)N[C@H](CCCCN)C(N)=O) [Peptide 12]
Cleavage site mediated by PTP-A [1]: H-Ala-Arg-Pro-↓-Ala-D-Lys-amide

NH2-SAQTTRFSAADLNALMP (H-SAQTTRFSAADLNALMP; listed as Porphyromonas gingivalis) [SEQ ID NO:23]
Cleavage by DPP IV (in words) [5]: found to cleave

H-Arg-Pro-↑-Lys-Pro-↑-Gln-Gln-Phe-Phe-Gly-Leu-Met-NH2 (H-RPKPQQFFGLM-NH2) [Peptide 6]
Cleavage by DPP IV (in words) [5]: found to cleave | Cleavage site mediated by DPP IV [5]: Pro-↑-Lys; also recorded: Pro-↑-Gln

Cl.NCCc1ccc(S(=O)(=O)F)cc1 [PEFABLOC SC, 4-(2-aminoethyl)-benzenesulfonyl-fluoride hydrochloride]
Effect on PTP-A amidolytic activity (in words) [3]: total loss of activity | Residual activity of PTP-A, % [3]: 56% | P. gingivalis growth (OD600) ([7]; Pefabloc added at 0.5 mg/ml when the optical density began to increase): decreased growth | P. gingivalis growth (OD600) ([7]; Pefabloc added at 2.0 mg/ml when the optical density began to increase): decreased growth | Growth of P. gingivalis ([7]; treatment of cultures in lagphase and early logarithmic growth): inhibits growth | Residual activity of DPP IV, % [4]: 100%

H-Arg-His-Pro-↓-Lys-Tyr-Lys-Thr-Glu-Leu (RHPKYKTEL) [Peptide 14]
Cleavage site mediated by PTP-A [1]: H-Arg-His-Pro-↓-Lys-Tyr-Lys-Thr-Glu-Leu

O=c1oc(Cl)c(Cl)c2ccccc12 [3,4-dichloroisocoumarin]
Effect on PTP-A amidolytic activity (in words) [3]: only a poor inhibitor | Residual activity of PTP-A, % [3]: 200% | Growth of P. gingivalis [7]: inhibits growth | Residual activity of DPP IV, % [4]: 100%

gelatin
Cleavage of protein by PTP-A (in words) [6]: absence of any proteolytic activity

H-Ala-Pro-↑-Val-Arg-Ser-Leu-Asn-Cys-Thr-Leu-Arg-Asp-Ser-Gln-Gln-Lys (APVRSLNCTLRDSQQK) [Peptide 24]
Cleavage site mediated by DPP IV [5]: H-Ala-Pro-↑-Val-Arg-Ser-Leu-Asn-Cys-

H-Val-Glu-Pro-↓-Ile-Pro-Tyr (VEPIPY) [Peptide 10]
Cleavage site mediated by PTP-A [1]: H-Val-Glu-Pro-↓-Ile-Pro-Tyr

H-Lys-Arg-Pro-Pro-Gly-Phe-Ser-Pro-Phe-Arg (KRPPGFSPFR; printed: Lys-Arg-Pro-Pro-Gly-Phe-Ser-Pro-Phe-Arg) [Peptide 3]
Cleavage of peptide by PTP-A (in words) [1]: significant exception

H-Arg-Pro-Pro-↓-Gly-Phe-Ser-Pro-Phe-Arg (RPPGFSPFR) [Peptide 1]
Cleavage site mediated by PTP-A [1]: H-Arg-Pro-Pro-↓-Gly-Phe-Ser-Pro-Phe-Arg
